Consider 58 sequences from the OligoGym collection.

Targets include SMAD4; BIRC3; MAP2K4; TNF.
What all share (conditions): ASO

These antisense oligonucleotides have a phosphorothioate backbone; sugars and methylation of C are not fully specified. Bounds are passed on as bounds.
Further: test concentration or dose not given here.

In turn, AAAGCAGAAGAAAAGTGA showed a remaining target (mRNA or protein) (fraction of control) with SMAD4 of at least 1.

Take AAATCTTGATTTGCTCTG: in the series with BIRC3, the remaining target (mRNA or protein) (fraction of control) is 0.93.

In turn, AAATTTGGCTGAGCACATCG displayed a remaining target (mRNA or protein) (fraction of control) with MAP2K4 of 0.53.

With AACACCAATACTCAGGAG, in the series with SMAD4, the remaining target (mRNA or protein) (fraction of control) is at least 1.

AACACCAATCTTATTGCACA: in the series with MAP2K4, the remaining target (mRNA or protein) (fraction of control) stood at 0.98.

In the series with SMAD4, AACATCACCTTCACCTTT showed a remaining target (mRNA or protein) (fraction of control) of 0.45.

With AACATCATGTTCTTGTTC, the remaining target (mRNA or protein) (fraction of control) with BIRC3 is 0.91.

AAGAAGGAGCACAATCTT registered a remaining target (mRNA or protein) (fraction of control) with BIRC3 of 0.3.

With AAGGATGCACGTTCTAGGTG, the remaining target (mRNA or protein) (fraction of control) with MAP2K4 amounted to 0.55.

On to AATCCTTTCCGACCAGCC, for which the remaining target (mRNA or protein) (fraction of control) with SMAD4 stood at 0.26.

For the sequence AATCGACATACATGGGAGAG, the remaining target (mRNA or protein) (fraction of control) with MAP2K4 turned out to be 0.55.

AATTGTTCTTCCACTGGT returned a remaining target (mRNA or protein) (fraction of control) with BIRC3 of at least 1.

For ACAGAAGAATACAACTAC, the remaining target (mRNA or protein) (fraction of control) with SMAD4 is at least 1.

Turning to ACCACTCACAGTGCTGCTTC, the remaining target (mRNA or protein) (fraction of control) in the series with MAP2K4 was found to be 0.68.

For ACCATATTTCACTGATTC, the remaining target (mRNA or protein) (fraction of control) with BIRC3 was 0.3.

For ACTGAAGACATTTTGAAT, the remaining target (mRNA or protein) (fraction of control) with BIRC3 stood at 0.38.

AGACCTGGACCAGTGATGGC showed a remaining target (mRNA or protein) (fraction of control) with MAP2K4 of 0.6.

AGAGCCACGGAAATATCC yielded a remaining target (mRNA or protein) (fraction of control) with BIRC3 of 0.91.

Sequence AGCAAGCCACTCTGTCTC yielded a remaining target (mRNA or protein) (fraction of control) with BIRC3 of 0.5.

In the series with BIRC3, AGCAGGAAAAGTGGAATA gave a remaining target (mRNA or protein) (fraction of control) of at least 1.

ATATAACACAGCTTCAGC: in the series with BIRC3, the remaining target (mRNA or protein) (fraction of control) was at least 1.

Regarding ATATTTCCACTTCTGTCCAG, the remaining target (mRNA or protein) (fraction of control) with MAP2K4 stood at 0.67.

Turning to ATGCTGCTGACGGCCGGGTG, in the series with MAP2K4, the remaining target (mRNA or protein) (fraction of control) stood at 0.76.

ATGGAGGATGATGGCTTGCT yielded a remaining target (mRNA or protein) (fraction of control) with MAP2K4 of 0.83.

In the case of ATGGGAGAGCTGGGAGTAGC, in the series with MAP2K4, the remaining target (mRNA or protein) (fraction of control) is at least 1.

In the series with BIRC3, ATTTGTTACTGAAGAAGG returned a remaining target (mRNA or protein) (fraction of control) of at least 1.

In turn, ATTTTAATTAGAAGCACT yielded a remaining target (mRNA or protein) (fraction of control) in the series with BIRC3 of at least 1.

Turning to CAAACGTGTTGGCGCTTT, the remaining target (mRNA or protein) (fraction of control) with BIRC3 is 0.65.

Consider CAACTTCAGTGCTTTGCGTT, for which, in the series with MAP2K4, the remaining target (mRNA or protein) (fraction of control) is 0.42.

CACAAGACCTAACTCAAA gave a remaining target (mRNA or protein) (fraction of control) with BIRC3 of 0.73.

With CACACAATAGAACGGTCAGA, in the series with MAP2K4, the remaining target (mRNA or protein) (fraction of control) was determined as 0.9.

As to CACCTTCTTTGACAAGTGGC, in the series with MAP2K4, the remaining target (mRNA or protein) (fraction of control) turned out to be 0.42.

CACTACTCCGCATTACTACA showed a remaining target (mRNA or protein) (fraction of control) in the series with MAP2K4 of 0.56.

Regarding CAGTCTCTCTATGTGTGGGT, the remaining target (mRNA or protein) (fraction of control) with MAP2K4 was 0.69.

CAGTCTGGGAAGCTCTGAGGG: in the series with TNF, the remaining target (mRNA or protein) (fraction of control) is at least 1.

For CATGTCCCTAAAATGTCA, the remaining target (mRNA or protein) (fraction of control) with BIRC3 is at least 1.

Sequence CATTTCTTTTCCAAGCGAAC came in with a remaining target (mRNA or protein) (fraction of control) with TNF of 0.94.

The sequence CCCTTAGGTTTCCCAGCAAGC registered a remaining target (mRNA or protein) (fraction of control) with TNF of 0.38.

With CCGTGCTCATGGTGTCCTTTC, the remaining target (mRNA or protein) (fraction of control) in the series with TNF was 0.51.

Take CCTATTCCCTTTCCTCCCAAA: the remaining target (mRNA or protein) (fraction of control) with TNF amounted to 0.14.

CCTCGCTGAGTTCTGCCGGCT returned a remaining target (mRNA or protein) (fraction of control) with TNF of 0.99.

CCTCTTTCCCTTACCCTCCTG had a remaining target (mRNA or protein) (fraction of control) with TNF of 0.1.

For the sequence CCTTCGATGTATAGGACA, the remaining target (mRNA or protein) (fraction of control) in the series with BIRC3 is at least 1.

On to CTAACTCAAAGGAGGAAA, for which the remaining target (mRNA or protein) (fraction of control) with BIRC3 was at least 1.

As for CTGAAATTTTGATTGAAT, the remaining target (mRNA or protein) (fraction of control) in the series with BIRC3 was 0.86.

In turn, CTGGTCCCTTGGTGTCCTCGC yielded a remaining target (mRNA or protein) (fraction of control) in the series with TNF of 0.69.

For the sequence CTGGTCTTTCCACGTCCCATT, in the series with TNF, the remaining target (mRNA or protein) (fraction of control) amounted to 0.17.

Take CTTAGAGGTACGTAAAAT: in the series with BIRC3, the remaining target (mRNA or protein) (fraction of control) turned out to be 0.71.

CTTCTCCAGGCTACTAGA had a remaining target (mRNA or protein) (fraction of control) with BIRC3 of 0.5.

Regarding CTTCTTCCCTGTTCCCCTGGC, the remaining target (mRNA or protein) (fraction of control) in the series with TNF was 0.2.

In the series with TNF, CTTGAGCTCAGCTCCCTCAGG had a remaining target (mRNA or protein) (fraction of control) of 0.45.

With GAAACCAAATTAGGATAA, the remaining target (mRNA or protein) (fraction of control) with BIRC3 was found to be 0.88.

In the series with MAP2K4, GAAATATATAGCTGCTACAA had a remaining target (mRNA or protein) (fraction of control) of at least 1.

Take GAAGCCTCCCCGCTCTTTGCC: the remaining target (mRNA or protein) (fraction of control) in the series with TNF worked out at 0.25.

In the series with MAP2K4, GAGATAATCACTTTTGAATT came in with a remaining target (mRNA or protein) (fraction of control) of at least 1.

In turn, GAGCCGCCGCCGCCGCTCGG gave a remaining target (mRNA or protein) (fraction of control) in the series with MAP2K4 of at least 1.

GAGTAAACCTTGCTGTAGAT had a remaining target (mRNA or protein) (fraction of control) with MAP2K4 of 0.73.

Consider GATATCAATCGACATACATG, for which the remaining target (mRNA or protein) (fraction of control) with MAP2K4 was found to be 0.83.
